This experiment deals with asymmetric di-methyl PABP1 in RKO cells. Description: RKO methylation assay, In Cell Western (ICW) for asymmetric di-methyl PABP1. Format: cell-based. Conditions: Homo sapiens, RKO, Cellular potencies, ICW PABP1me2a. The method, boiled down: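 In-cell Western on fixed RKO cells after 48 h compound exposure: anti-asymmetric di-methyl PABP1 signal at 800 nm over DRAQ5 DNA signal at 700 nm. Percent inhibition set between DMSO wells and wells with 20 μM reference compound; IC50 curves fitted in triplicate.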

Structures are written as SMILES. Bounds are passed on as bounds.

By IC50 is commonly meant the concentration that gives 50% inhibition. The compound `CNCC(O)COc1cc(Cl)cc(-c2nc(N[C@@H]3CCOC3)c(C)c(-c3ccncc3)n2)c1` (stereo partly drawn) [Example 331-1a] displayed an IC50 of 5 to 10 µM. Then `CNC[C@@H](O)COc1ccc(Cl)c(-c2nc(-c3c(C)noc3C)c(C)c(N3CCc4ccncc43)n2)c1` [Example 174-3], with less than 5 µM. Then `CNC[C@H](O)COc1ccc(Cl)c(-c2nc(NC[C@H]3COCCN3C(=O)OC)c(C)c(-c3c(C)noc3C)n2)c1` [Example 58-3], with less than 5 µM; and `CNCC(O)COc1cccc(-c2nc(-c3cnc4nccn4c3)cc(N(C)C3CCOCC3)n2)c1` (stereo not drawn) [Example 620-1a], with 10 to 20 µM; and `CNCC(O)COc1ccc(Cl)c(-c2nc(N[C@H]3CCC[C@@H](OC)C3)c(C)c(-c3c(C)noc3C)n2)c1` (stereo partly drawn) [Example 57-3], with less than 5 µM. Then `CNCC(O)COc1cc(Cl)cc(-c2nc(-c3c(C)noc3C)cc(-c3c(C)noc3C)n2)c1` (stereo not drawn) [Example 4-1a], with 10 to 20 µM; and `CNCC(O)COc1cc(Cl)cc(-c2nc(NC3CCN(C4CC4)CC3)c(C)c(-c3c(C)noc3C)n2)c1` (stereo not drawn) [Example 22-3], with less than 5 µM.

Compound `CCO[C@@H]1CCC[C@@H]1Nc1nc(-c2cc(OC[C@H](O)CNC)ccc2Cl)nc(-c2c(C)noc2C)c1C` [Example 253-3] came in with an IC50 of less than 5 µM. Then `CNC[C@@H](O)COc1ccc(Cl)c(-c2nc(N[C@@H]3CO[C@@H](C)C3)c(Cl)c(-c3c(C)noc3C)n2)c1` [Example 181-3], with less than 5 µM; and `CNCC(O)COc1cccc(-c2nc(NC3CC3)c(C)c(-c3c(C)noc3C)n2)c1` (stereo not drawn) [Example 293-1a], with less than 5 µM. Then `CNC[C@@H](O)COc1ccc(Cl)c(-c2nc(-c3c(C)noc3C)c(C)c(N3CCc4ncccc43)n2)c1` [Example 199-3], with less than 5 µM. Then `CCOC(=O)N1CCOC[C@@H]1CNc1nc(-c2cc(OC[C@H](O)CNC)ccc2Cl)nc(-c2c(C)noc2C)c1Cl` [Example 56-3], with less than 5 µM; and `CNCC(O)COc1cccc(-c2nc(N3CCN(C(=O)OC)[C@@H](C)C3)cc(N(C)C3CCOCC3)n2)c1` (stereo partly drawn) [Example 581-1a], with 10 to 20 µM; and `CNCC(O)COc1cccc(-c2nc(N[C@H]3C[C@@H](C(C)(C)O)C3)c(C)c(-c3c(C)noc3C)n2)c1` (stereo partly drawn) [Example 232-1a], with less than 5 µM. For `CNCC(O)COc1cccc(-c2nc(N3CCN4C(=O)OC[C@@H]4C3)cc(N(C)C3CCOCC3)n2)c1` (stereo partly drawn) [Example 576-1a], the IC50 lay in the range of 10 to 20 µM.

As to `CNCC(O)COc1cccc(-c2nc(-c3cn(S(C)(=O)=O)c4ncncc34)cc(N(C)C3CCOCC3)n2)c1` (stereo not drawn) [Example 483-1a], the IC50 was less than 5 µM.

`CNCC(O)COc1ccc(Cl)c(-c2nc(NC[C@H]3CCCO3)c(C)c(-c3c(C)noc3C)n2)c1` (stereo partly drawn) [Example 6-3] yielded an IC50 of less than 5 µM. In the case of `CNC[C@@H](O)COc1ccc(Cl)c(-c2nc(N[C@@H]3CO[C@H](C)C3)c(C)c(-c3c(C)noc3C)n2)c1` [Example 179-3], the IC50 is less than 5 µM.

In the case of `CNC[C@@H](O)COc1ccc(Cl)c(-c2nc(N[C@@H]3CCO[C@H](C)C3)c(C)c(-c3c(C)noc3C)n2)c1` [Example 132-3], the half-inhibitory concentration (IC50) was less than 5 µM. Then `CNC[C@@H](O)COc1ccc(Cl)c(-c2nc(-c3c(C)noc3C)c(C)c(N3Cc4cnn(CC(F)(F)F)c4C3)n2)c1` [Example 265-3], with less than 5 µM; and `CCOC(=O)N1CCOC[C@@H]1CNc1nc(-c2cc(OC[C@@H](O)CNC)ccc2F)nc(-c2c(C)noc2C)c1C` [Example 61-3], with less than 5 µM; and `CCS(=O)(=O)N1CCOC[C@@H]1CNc1nc(-c2cccc(OCC(O)CNC)c2)nc(-c2c(C)nsc2C)c1C` (stereo partly drawn) [Example 71-3], with 10 to 20 µM. Then `CNCC(O)COc1cccc(-c2nc(-c3c(C)noc3C)c(C)c(N3[C@@H]4CC[C@H]3CN(C)C4)n2)c1` (stereo partly drawn) [Example 117-1a], with 10 to 20 µM; and `CNC[C@@H](O)COc1ccc(Cl)c(-c2nc(-c3c(C)noc3C)c(C)c(N(C)[C@H]3CC[C@@H](OC)C3)n2)c1` [Example 213-3], with less than 5 µM. Then `Cc1noc(C)c1-c1nc(-c2cccc(OCC(O)CN)c2)nc(NC2CCOCC2)c1C` (stereo not drawn) [Example 54-1a], with less than 5 µM; and `CNCC(O)COc1cccc(-c2nc(N[C@@H]3CCOC3)c(C)c(N3CCCC4(CN(CC(F)F)C4)C3)n2)c1` (stereo partly drawn) [Example 469-1a], with 5 to 10 µM; and `CNC[C@@H](O)COc1ccc(Cl)c(-c2nc(N[C@H]3C[C@H](OC)C3)c(Cl)c(-c3c(C)noc3C)n2)c1` [Example 217-3], with less than 5 µM. Compound `CCOC(=O)N1CCC2(CC1)CN(c1nc(-c3cc(OC[C@H](O)CNC)ccc3F)nc(-c3c(C)noc3C)c1C)C2` [Example 282-3] returned a 50% inhibitory concentration (IC50) of less than 5 µM. In the case of `CNC[C@@H](O)COc1ccc(Cl)c(-c2nc(-c3c(C)noc3C)cc(N3Cc4cnn(C)c4C3)n2)c1` [Example 250-3], the IC50 was less than 5 µM. Then `CNC[C@@H](O)COc1ccc(F)c(-c2nc(N[C@H]3CCN(C(=O)OC)C[C@H]3F)c(C)c(-c3c(C)noc3C)n2)c1` [Example 64-3], with less than 5 µM; and `CNCC(O)COc1cccc(-c2nc(NC3CCN(C4CC4)CC3)c(C)c(-c3c(C)noc3C)n2)c1` (stereo not drawn) [Example 185-1a], with less than 5 µM; and `CNC[C@@H](O)COc1ccc(Cl)c(-c2nc(N[C@@H]3CO[C@H](C)C3)c(Cl)c(-c3c(C)noc3C)n2)c1` [Example 180-3], with less than 5 µM. Then `CNCC(O)COc1cccc(-c2nc(N[C@@H]3CCNC3)c(C)c(-c3c(C)noc3C)n2)c1` (stereo partly drawn) [Example 307-1a], with 10 to 20 µM.

Take `CNCC(O)COc1cccc(-c2nc(-c3c(C)noc3C)cc(N3CCN(CC(F)(F)F)CC3)n2)c1` (stereo not drawn) [Example 132-1a]: the IC50 was less than 5 µM.

Take `CNCC(O)COc1ccc(Cl)c(-c2nc(NC3CC(O)(C(F)(F)F)C3)c(C)c(-c3c(C)noc3C)n2)c1` (stereo not drawn) [Example 38-3]: the IC50 was less than 5 µM. As for `CNCC(O)COc1cccc(-c2nc(-c3c(C)noc3C)cc(N(C)c3cncnc3)n2)c1` (stereo not drawn) [Example 50-1a], the IC50 is less than 5 µM.

Turning to `CNCC(O)COc1cccc(-c2nc(-c3nc(C)cn3C)cc(N(C)C3CCOCC3)n2)c1` (stereo not drawn) [Example 519-1a], the half-maximal inhibitory concentration (IC50) is 5 to 10 µM. Then `CNC[C@@H](O)COc1ccc(Cl)c(-c2nc(-c3c(C)noc3C)c(C)c(N3Cc4nccnc4C3)n2)c1` [Example 142-3], with less than 5 µM; and `CCOC(=O)N1CCC2(C1)CN(c1nc(-c3cc(OC[C@H](O)CNC)ccc3Cl)nc(-c3c(C)noc3C)c1C)C2` [Example 287-3], with less than 5 µM; and `CNCC(O)COc1cccc(-c2nc(NC3CCOC3)c(C)c(N3CCN(CC(F)(F)F)CC3)n2)c1` (stereo not drawn) [Example 449-1a], with less than 5 µM. `CNC[C@@H](O)COc1ccc(Cl)c(-c2nc(N[C@H]3CO[C@H](C)C3)c(Cl)c(-c3c(C)noc3C)n2)c1` [Example 201-3] displayed an IC50 of less than 5 µM.

The compound `CNC[C@@H](O)COc1ccc(F)c(-c2nc(-c3c(C)noc3C)c(Cl)c(N3Cc4nccnc4C3)n2)c1` [Example 295-3] had a half-maximal inhibitory concentration (IC50) of less than 5 µM. Then `CNCC(O)COc1cc(Cl)cc(-c2nc(-c3ccc(N(C)C)nc3)c(C)c(N(C)C3CCOCC3)n2)c1` (stereo not drawn) [Example 614-1a], with 10 to 20 µM.

For the compound `CNC[C@@H](O)COc1ccc(Cl)c(-c2nc(N[C@@H]3CCN(C4CC4)C[C@@H]3F)c(C)c(-c3c(C)noc3C)n2)c1` [Example 167-3], the half-inhibitory concentration (IC50) is less than 5 µM. Then `CNCC(O)COc1cccc(-c2nc(-c3c(C)noc3C)c(C)c(N3CCO[C@H](C)C3)n2)c1` (stereo partly drawn) [Example 211-1a], with less than 5 µM; and `CNC[C@H](O)COc1ccc(Cl)c(-c2nc(N[C@H]3CCN(C(=O)OC)[C@H](C)C3)c(C)c(-c3c(C)noc3C)n2)c1` [Example 103-3], with less than 5 µM. Compound `CNCC(O)COc1cccc(-c2nc(-c3c[nH]c4ncncc34)cc(N(C)C3CCOCC3)n2)c1` (stereo not drawn) [Example 504-1a] returned an IC50 of less than 5 µM.

Consider `CNC[C@@H](O)COc1ccc(Cl)c(-c2nc(-c3c(C)noc3C)c(C)c(N3Cc4cc(F)cnc4C3)n2)c1` [Example 157-3], for which the half-maximal inhibitory concentration (IC50) is less than 5 µM.

Consider `CNCC(O)COc1cccc(-c2nc(-c3c(C)noc3C)c(C)c(N3C[C@@H](C)O[C@@H](C)C3)n2)c1` (stereo partly drawn) [Example 164-1a], for which the half-maximal inhibitory concentration (IC50) is less than 5 µM. Then `CNCC(O)COc1cccc(-c2nc(-c3cc4ccccc4o3)cc(N(C)C3CCOCC3)n2)c1` (stereo not drawn) [Example 570-1a], with 10 to 20 µM. Then `CNCC(O)COc1cccc(-c2nc(-c3cccc(C#N)c3)cc(N(C)C3CCOCC3)n2)c1` (stereo not drawn) [Example 622-1a], with 10 to 20 µM. Then `CNCC(O)COc1cccc(-c2nc(N[C@@H]3CCOC3)c(C)c(N3CCN(C(C)=O)[C@@H](C)C3)n2)c1` (stereo partly drawn) [Example 396-1a], with 10 to 20 µM; and `CNC[C@@H](O)COc1ccc(Cl)c(-c2nc(-c3c(C)noc3C)c(C)c(N(C)C3CC(COC)C3)n2)c1` (stereo partly drawn) [Example 220-3], with less than 5 µM.

`CNCC(O)COc1cccc(-c2nc(Nc3cn(C)cn3)c(C)c(-c3c(C)noc3C)n2)c1` (stereo not drawn) [Example 210-1a] displayed an IC50 of less than 5 µM. Then `CNCC(O)COc1cccc(-c2nc(-c3ccc(S(C)(=O)=O)cc3)cc(N(C)C3CCOCC3)n2)c1` (stereo not drawn) [Example 499-1a], with less than 5 µM; and `CNC[C@@H](O)COc1ccc(Cl)c(-c2nc(N[C@@H]3CCN(C(=O)OC)[C@@H](C)C3)c(C)c(-c3c(C)noc3C)n2)c1` [Example 101-3], with less than 5 µM.

As for `CNC[C@@H](O)COc1ccc(Cl)c(-c2nc(N[C@H]3CCO[C@H](C)C3)c(C)c(-c3c(C)noc3C)n2)c1` [Example 196-3], the half-inhibitory concentration (IC50) was less than 5 µM. Then `CNC[C@@H](O)COc1ccc(F)c(-c2nc(-c3c(C)noc3C)c(C)c(N3Cc4cc(OC)cnc4C3)n2)c1` [Example 244-3], with less than 5 µM. Compound `CNCC(O)COc1cccc(-c2nc(N(C)C3CCOCC3)cc(-n3cccn3)n2)c1` (stereo not drawn) [Example 542-1a] had an IC50 of 10 to 20 µM. Then `CNCC(O)COc1cccc(-c2nc(N3CCO[C@H](CN)C3)cc(N(C)C3CCOCC3)n2)c1` (stereo partly drawn) [Example 524-1a], with 5 to 10 µM.

(Values after US10633389B2, “CARM1 inhibitors and uses thereof” (Epizyme, Inc., priority 2013, dated 2020).)
